US8198317B2, “Methylenedioxy phenolic compounds and their use to treat disease” (The Ohio State University Research Foundation, priority 2008, dated 2012)

What was measured:
ICAM-1 = assay: ELISA of ICAM-1 release from TNF-α stimulated HUVEC; type: cell-based, human; conditions: HUVEC pretreated 24 hours, then 2 ng/mL TNF-α for 6 hours
Method: (§1) Cell Culture: All experiments were performed with cultured Human Umbilical Vein Endothelial Cells (HUVECs—Gibco, Invitrogen) and grown to confluence at 37° C. in a 5% CO2 humidified incubator, on tissue culture flasks previously coated with 1% gelatin in supplemented culture medium (M199 with 10% heat inactivated fetal calf serum, 100 U/ml penicillin, 100 μg/ml streptomycin, 2 mM glutamine, 10 mM HEPES, pH 7.4, heparin 12 I.U./ml, 1% retinal derived growth factor, Sigma). Following trypsin treatment, the cells were detached from the flasks and final mono-layers were prepared by seeding HUVECs on gelatin-precoated culture plates and then incubated for 24-48 h to ensure confluence. Cells up to the fourth passage were used for all experiments. Recombinant human TNF-α was purchased from R&D Systems (Minneapolis, Minn.).
(§2) Enzyme-Linked Immunosorbent Assay (ELISA): To measure the expression of cell surface adhesion molecules, ELISA technique was utilized (R and D Systems, Minneapolis, Minn.). […]
(§3) Enzyme-Linked Immunosorbent Assay (ELISA) and results: To measure the expression of cell surface adhesion molecules, ELISA technique was utilized. […] The expression of VCAM-1 and ICAM-1 were evaluated after TNF-α stimulation for 6 hours.

VCAM-1 = assay: ELISA of VCAM-1 release from TNF-α stimulated HUVEC; type: cell-based, human; conditions: HUVEC pretreated 24 hours, then 2 ng/mL TNF-α for 6 hours
Method: as §1, §2, §3

p65 subunit of NF-κB = assay: NF-κB translocation assay in HUVECs; type: cell-based, human; conditions: HUVEC
Description: NF-κB Translocation Assays: Cytokines such as TNF-α and interleukin-1 (IL-1) activate a pro-inflammatory response in endothelial cells. An early event in this response is nuclear translocation of the NF-κB transcription factor. This translocation causes the transcription of pro-inflammatory genes such as adhesion molecules VCAM-1, ICAM-1 and E-Selectin to be induced.
NF-κB is a heterodimer, composed of p65 and p50 subunits. Nuclear translocation is monitored by immunolocalization of the p65 subunit of NF-κB in fixed cells and is quantified by measuring the ratio of nuclear to cytoplasmic NF-κB signal. The nuclear translocation of NF-κB in stimulated cells such as primary human umbilical vein endothelial cells (HUVECs) therefore provides a readout that can be used to study the effects of bioactive compounds on the responsiveness of endothelium to pro-inflammatory stimuli. HUVECs were pre-treated with INV-75 at various concentrations (10 nM to 1 μM) or control (without [INV-75) for 24 hours. The media was then changed to one containing 10 ng/ml TNFα, or 1 μg/ml bovine serum albumin (vehicle) for 6 hours. p65 distribution was calculated as intensity in the cytoplasm and nucleus in regions of interest. At least 5 cells per high power field were used and at least 5 high power fields per concentration of the drug were used. The intensities were then expressed as the ratio of nuclear to cytoplasmic staining at least 5 cells per high power field. The data was then expressed as a ratio of the nuclear to cytoplasmic ratio without TNF-α.
In alternate experiments to assess NF-κB Activation extraction reagents were used to extract nuclear and cytoplasmic fraction from HUVEC cells previously treated with INV-75 at various concentrations for 6-24 hours before being stimulated with 2 ng/mL TNF-α for 6 hours. The expression of VCAM-1 and ICAM-1 were evaluated after TNF-α stimulation for 6 hours stimulation by western blot analysis. The p65 level in nuclear and cytoplasmic extracts were then analyzed by western blotting as described above.

[1] = system: New Zealand White rabbits; assay: Plasma lipid profile in NZW rabbits; type: in vivo, rabbit; conditions: end of treatment
Method: Animal Model: 15 male New Zealand White rabbits (Charles River, Mass.) were fed with high fat diet (HFD) (Harlan Teklad rabbit diet with 0.5% cholesterol, TD 87251). After 4 weeks of high fat diet, rabbits were randomized into three different treatment groups, normal control (n=5), lipoic acid (100 mg/kg/day) (n=5), INV 70-65 (100 mg/kg/day) (n=5). These drugs were administered to the animals via their chow by mixing the drugs with the high fat diet. A fixed amount of chow and drugs admixed in the chow were fed to all animals every day after carefully calculating food intake in each rabbit. Drugs were dissolved in 100% ethanol and sprayed onto the diet and kept under vacuum to let ethanol evaporate overnight. Two (2) weeks after drug or control admixed HFD, all rabbits underwent aortic balloon denudation surgeries followed by 12 weeks of continued administration of drug or controls admixed with HFD. FIG. 29 provides an outline of the experimental design.
A lipid profile (Cholesterol, Triglycerides, direct HDL, LDL and VLDL) was performed after a total of 12 weeks of treatment with the drugs. One (1) ml of blood from the ear lobe vein was placed into tubes containing K EDTA at the beginning of the high cholesterol diet and again at the time of sacrifice. All values were expressed as mean±SD. The bar graph of each group both at the baseline and the end point measurement is presented. The statistical analysis was done with one way ANOVA.

Cardiovascular Patient = assay: Treatment of a patient with acute non-ST elevation myocardial infarction (Examples 11-12); type: in vivo, human; conditions: 1.0 to 100 mg/kg in the catheterization laboratory
Method: (§4) A person presents with uncomfortable pressure, squeezing and pain in the center of their chest as well as in shoulders, arms, neck, jaw and back for over 4 hours. They also complain of shortness of breath. […] They are given aspirin, clopidogrel, nitrates and IV heparin and taken to the catheterization laboratory. After being evaluated with an angiography, they are diagnosed as suffering from a […] blockage in the left anterior descending coronary artery. The patient is administered a composition comprising an effective amount of 3,4-Methylenedioxy 6-nitro phenyl lipoate (INV-7465) (1.0 to 100 mg/kg) in the catheterization laboratory. Patient reports improvement in the chest pain, shortness of breath. They are again evaluated with an angiography to measure reduced plaque in their arteries.
as §4, with “The patient is administered a composition comprising an effective amount of 3,4-Methylenedioxy 6-nitro phenyl lipoate (INV-7465) (1.0 to 100 mg/kg) in the catheterization laboratory. Patient reports improvement in the chest pain, shortness of breath.” left out

CC(=O)Oc1cc2c(cc1[N+](=O)[O-])OCO2 [INV-75, 3,4-methylenedioxy-6-nitrophenyl acetate]
release of ICAM-1 (ICAM-1): marked reduction
release of VCAM-1 (VCAM-1): marked reduction
nuclear p65 expression (nuclear to cytoplasmic ratio) (p65 subunit of NF-κB; 24 hours pre-treatment, then TNF-α, n=3): marked inhibition
concentration from which translocation of p65 to the nucleus is inhibited (p65 subunit of NF-κB; TNF-α stimulated): ≥ 10 nM
LDL level compared to normal control [1]: moderate decreases
TC level compared to normal control [1]: moderate decreases
chest pain, shortness of breath (Cardiovascular Patient): improvement

O=C(CCCCC1CCSS1)Oc1ccc2c(c1)OCO2 (stereo not drawn) [INV-7065, 3,4-Methylenedioxy phenyl lipoate]
HDL levels [1]: insignificant change
LDL level compared to normal control [1]: lower
VLDL levels compared to controls [1]: slight decrease
triglyceride (TG) levels compared to controls [1]: significantly decreased

O=C(CCCCC1CCSS1)Oc1cc2c(cc1[N+](=O)[O-])OCO2 (stereo not drawn) [INV-7465, 3,4-Methylenedioxy 6-nitro phenyl lipoate]
release of ICAM-1 (ICAM-1): marked reduction
release of VCAM-1 (VCAM-1): marked reduction
ratio of nuclear to cytoplasmic staining of p65 (p65 subunit of NF-κB; TNF-α, at all the concentrations tested): decrease
chest pain, shortness of breath (Cardiovascular Patient): improvement
